Measurements reported in PMC9969401, “Discovery of 2-(3-Benzamidopropanamido)thiazole-5-carboxylate Inhibitors of the Kinesin HSET (KIFC1) and the Development of Cellular Target Engagement Probes” (Journal of Medicinal Chemistry, 2023).

Key:
[1] = test system: non-centrosome amplified DLD1 (4N) cells; experiment: Multipolar spindle assay (4N cell line); assay type: cell-based, human; conditions: for % Multipolarity above baseline @ 15 mM (4N cells): supplementary CSV; for % multipolarity above baseline @ 15 μM (4N cells): 4N DLD1 cells (Table 4)
Summary of the method: (§1)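 4NCA cells came from 2N DLD1 treated 24 h with 2 μΜ DCB then released 24 h; 4N DLD1 used directly. After 3.5 h arrest with 8 μM pro-TAME, compounds were added with 8 μM MG-132; fixed cells stained for aurora A, pHH3 and DAPI, imaged, and percentage multipolar (>2 poles) mitoses scored.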

[2] = test system: centrosome-amplified (4NCA) DLD1 cells; experiment: Multipolar spindle assay (4NCA cell line); assay type: cell-based, human
Summary of the method: as §1

[3] = 15 μM, 4NCA DLD1 cells (Table 4)
[4] = 15 µM, 4NCA cells, supplementary CSV

Compound | % Multipolarity above baseline @ 15 mM (4N cells) ([1]; 15 μM) [%] | % multipolarity above baseline @ 15 μM (4N cells) [1] [%] | % multipolarity above baseline @ 15 μM (4NCA cells) [2, 3] [%] | % multipolarity above baseline @ 15 μM (4NCA cells) [2, 4] [%] | effect on multipolar mitoses (4N), in words ([1]; 15 μM, non-centrosome amplified DLD1 (4N) cell line) | increase in mitotic spindle multipolarity (4NCA) ([2]; 15 μM, centrosome-amplified (4NCA) DLD1 cell line) [%]
CCCOC(=O)c1sc(NC(=O)C[C@H](CCCNC)NC(=O)c2cccc(-c3noc(C)n3)c2)nc1C [Compound 35, Propyl (S)-4-Methyl-2-(3-(3-(5-methyl-1,2,4-oxadiazol-3-yl)benzamido)-6-(methylamino)hexanamido)thiazole-5-carboxylate] | 1 | 1 | 11 | 11 |  | 
CCCOC(=O)c1sc(NC(=O)CCNC(=O)c2cccc(-c3noc(C)n3)c2)nc1C [Compound 32, Propyl 4-Methyl-2-(3-(3-(5-methyl-1,2,4-oxadiazol-3-yl)benzamido)propanamido)thiazole-5-carboxylate] | 2 | 2 | 21 | 21 | minimal effect | 21
CCCOC(=O)c1sc(NC(=O)C[C@H](CCCN(C)C)NC(=O)c2cccc(-c3noc(C)n3)c2)nc1C [Compound 36, Propyl (S)-2-(6-(Dimethylamino)-3-(3-(5-methyl-1,2,4-oxadiazol-3-yl)benzamido)hexanamido)-4-methylthiazole-5-carboxylate] | 1 | 1 | 15 | 15 |  | 
